Assay results from US9845321B2, “1,3-dihydro-2H-benzimidazol-2-one derivatives substituted with heterocycles as respiratory syncytial virus antiviral agents” (JANSSEN SCIENCES IRELAND UC, priority 2012, dated 2017).

Tests used:
[1] = test system: rgRSV224 virus; assay: Antiviral activity: rgRSV224 (GFP-expressing RSV) replication in HeLa cells, GFP expression measured three days post-virus exposure; assay type: cell-based; details: human respiratory syncytial virus, 72 h, read-out: WT activity pEC50 (converted)
Procedure: (§1) Black 96-well clear-bottom microtiter plates (Corning, Amsterdam, The Netherlands) were filled in duplicate using a customized robot system with serial 4-fold dilutions of compound in a final volume of 50 μl culture medium [RPMI medium without phenol red, 10% FBS, 0.04% gentamycin (50 mg/ml) and 0.5% DMSO]. Then, 100 μl of a HeLa cell suspension (5×10^4 cells/ml) in culture medium was added to each well followed by the addition of 50 μl rgRSV224 (MOI=0.02) virus in culture medium using a multidrop dispenser (Thermo Scientific, Erembodegem, Belgium). rgRSV224 virus is an engineered virus that includes an additional GFP gene (Hallak et al, 2000) and was in-licensed from the NIH (Bethesda, Md., USA). Medium, virus- and mock-infected controls were included in each test. Cells were incubated at 37° C. in a 5% CO2 atmosphere. Three days post-virus exposure, viral replication was quantified by measuring GFP expression in the cells by a MSM laser microscope (Tibotec, Beerse, Belgium). The EC50 was defined as the 50% inhibitory concentration for GFP expression. In parallel, compounds were incubated for three days in a set of white 96-well microtitier plates (Corning) and the cytotoxicity of compounds in HeLa cells was determined by measuring the ATP content of the cells using the ATPlite kit (PerkinElmer, Zaventem, Belgium) according to the manufacturer's instructions. The CC50 was defined as the 50% concentration for cytotoxicity.

[2] = in vitro; assay type: cell-based; details: human
Procedure: as §1

SMILES | EC50 [1] | CC50 at 3 days [2]
CS(=O)(=O)CCCn1c(Cn2c(=O)n(C3CNC3)c3ccc(F)cc32)cc2cc(Cl)ccc21 [Compound P3, 1-(azetidin-3-yl)-3-((5-chloro-1-(3-(methylsulfonyl)propyl)-1H-indol-2-yl)methyl)-5-fluoro-1H-benzo[d]imidazol-2(3H)-one] | 100 nM | 12600 nM
CS(=O)(=O)CCCn1c(Cn2c(=O)n(C3CNC3)c3ccncc32)cc2cc(Cl)ccc21 [Compound P4, 1-(azetidin-3-yl)-3-((5-chloro-1-(3-(methylsulfonyl)propyl)-1H-indol-2-yl)methyl)-1H-imidazo[4,5-c]pyridin-2(3H)-one] | 31.6 nM | > 100000 nM
CC1(n2c(=O)n(Cc3cc4cc(Cl)ccc4n3CCCS(C)(=O)=O)c3cnccc32)CC1 [Compound P7, 3-((5-chloro-1-(3-(methylsulfonyl)propyl)-1H-indol-2-yl)methyl)-1-(1-methylcyclopropyl)-1H-imidazo[4,5-c]pyridin-2(3H)-one] | 0.501 nM | 50100 nM
CC1(n2c(=O)n(Cc3nc4nc(Cl)ccc4n3CCCC(F)(F)F)c3cnccc32)CC1 [Compound P9, 3-((5-chloro-1-(4,4,4-trifluorobutyl)-1H-imidazo[4,5-b]pyridin-2-yl)methyl)-1-(1-methylcyclopropyl)-1H-imidazo[4,5-c]pyridin-2(3H)-one] | 1 nM | > 100000 nM
CC(C)(O)CN1CC(n2c(=O)n(Cc3cc4cc(Cl)ccc4n3CCCS(C)(=O)=O)c3cc(F)ccc32)C1 [Compound P12, 3-((5-chloro-1-(3(methylsulfonyl)propyl)-1H-indol-2-yl)methyl)-5-fluoro-1-(1-(2-hydroxy-2-methylpropyl)azetidin-3-yl)-1H-benzo[d]imidazol-2(3H)-one] | 39.8 nM | 12600 nM
COc1ccc(-n2c(=O)n(Cc3cc4cc(Cl)ccc4n3CCCC#N)c3cnccc32)cc1 [Compound P14, 4-(5-chloro-2-((1-(4-methoxyphenyl)-2-oxo-1H-imidazo[4,5-c]pyridin-3(2H)-yl)methyl)-1H-indol-1-yl)butanenitrile] | 0.398 nM | 12600 nM
COc1ccc(-n2c(=O)n(Cc3cc4cc(Cl)ccc4n3CCCC#N)c3cnccc32)cc1F [Compound P15, 4-(5-chloro-2-((1-(3-fluoro-4-methoxyphenyl)-2-oxo-1H-imidazo[4,5-c]pyridin-3(2H)-yl)methyl)-1H-indol-1-yl)butanenitrile] | 1 nM | > 100000 nM
COc1ccc(-n2c(=O)n(Cc3nc4nc(Cl)ccc4n3CCC(C)C)c3cnccc32)cc1 [Compound P16, 3-((5-chloro-1-isopentyl-1H-imidazo[4,5-b]pyridin-2-yl)methyl)-1-(4-methoxyphenyl)-1H-imidazo[4,5-c]pyridin-2(3H)-one] | 1 nM | > 50100 nM
COc1ccc(-n2c(=O)n(Cc3cc4nc(Cl)ccc4n3CCCC(F)(F)F)c3cnccc32)cc1 [Compound P17, 3-((5-chloro-1-(4,4,4-trifluorobutyl)-1H-pyrrolo[3,2-b]pyridin-2-yl)-methyl)-1-(4-methoxyphenyl)-1H-imidazo[4,5-c]pyridin-2(3H)-one] | 10 nM | > 100000 nM
CC(C)CCn1c(Cn2c(=O)n(C3(C)CC3)c3ccncc32)nc2nc(Cl)ccc21 [Compound P18, 3-((5-chloro-1-isopentyl-1H-imidazo[4,5-b]pyridin-2-yl)methyl)-1-(1-methylcyclopropyl)-1H-imidazo[4,5-c]pyridin-2(3H)-one] | 2 nM | > 100000 nM
N#CCCCn1c(Cn2c(=O)n(-c3ncccn3)c3ccncc32)cc2cc(Cl)ccc21 [Compound P21, 4-(5-chloro-2-((2-oxo-1-(pyrimidin-2-yl)-1H-imidazo[4,5-c]pyridin-3(2H)-yl)methyl)-1H-indol-1-yl)butanenitrile] | 6.31 nM | > 100000 nM
CC(C)CCn1c(Cn2c(=O)n(-c3ccncc3)c3ccncc32)nc2nc(Cl)ccc21 [Compound P23, 3-((5-chloro-1-isopentyl-1H-imidazo[4,5-b]pyridin-2-yl)methyl)-1-(pyridin-4-yl)-1H-imidazo[4,5-c]pyridin-2(3H)-one] | 7.94 nM | > 100000 nM
COCCOc1ccc(-n2c(=O)n(Cc3cc4cc(Cl)ccc4n3CCCC#N)c3cnccc32)cc1 [Compound P28, 4-(5-chloro-2-((1-(4-(2-methoxyethoxy)phenyl)-2-oxo-1H-imidazo[4,5-c]pyridin-3(2H)-yl)methyl)-1H-indol-1-yl)butanenitrile] | 0.2 nM | > 100000 nM
N#CCCCn1c(Cn2c(=O)n(-c3ccc(OC(F)(F)F)cc3)c3ccncc32)cc2cc(Cl)ccc21 [Compound P29, 4-(5-chloro-2-((2-oxo-1-(4-(trifluoromethoxy)phenyl)-1H-imidazo[4,5-c]pyridin-3(2H)-yl)methyl)-1H-indol-1-yl)butanenitrile] | 1.26 nM | > 100000 nM
CS(=O)(=O)CCCn1c(Cn2c(=O)n(-c3ccc(Cl)cc3)c3ccncc32)cc2cc(Cl)ccc21 [Compound P30, 3-((5-chloro-1-(3-(methylsulfonyl)propyl)-1H-indol-2-yl)methyl)-1-(4-chlorophenyl)-1H-imidazo[4,5-c]pyridin-2(3H)-one] | 1.58 nM | > 100000 nM
O=c1n(Cc2cc3cc(Cl)ccc3n2CCCCF)c2cnccc2n1-c1ccc2ncccc2c1 [Compound P31, 3-((5-chloro-1-(4-fluorobutyl)-1H-indol-2-yl)methyl)-1-(quinolin-6-yl)-1H-imidazo[4,5-c]pyridin-2(3H)-one] | 1.58 nM | > 100000 nM
Cn1ccnc1-n1c(=O)n(Cc2cc3cc(Cl)ccc3n2CCCC#N)c2cnccc21 [Compound P33, 4-(5-chloro-2-((1-(1-methyl-1H-imidazol-2-yl)-2-oxo-1H-imidazo[4,5-c]pyridin-3(2H)-yl)methyl)-1H-indol-1-yl)butanenitrile] | 10 nM | > 100000 nM
N#CCCCn1c(Cn2c(=O)n(-c3ccncc3)c3ccc(F)cc32)cc2cc(Cl)ccc21 [Compound P40, 4-(5-chloro-2-((6-fluoro-2-oxo-3-(pyridin-4-yl)-2,3-dihydro-1H-benzo[d]imidazol-1-yl)methyl)-1H-indol-1-yl)butanenitrile] | – | > 100000 nM
CS(=O)(=O)c1ccc(-n2c(=O)n(Cc3cc4cc(Cl)ccc4n3CCCC#N)c3cnccc32)cc1 [Compound P41, 4-(5-chloro-2-((1-(4-(methylsulfonyl)phenyl)-2-oxo-1H-imidazo[4,5-c]pyridin-3(2H)-yl)methyl)-1H-indol-1-yl)butanenitrile] | 0.2 nM | > 100000 nM
N#CCCCn1c(Cn2c(=O)n(-c3ccncc3F)c3ccncc32)cc2cc(Cl)ccc21 [Compound P42, 4-(5-chloro-2-((1-(3-fluoropyridin-4-yl)-2-oxo-1H-imidazo[4,5-c]pyridin-3(2H)-yl)methyl)-1H-indol-1-yl)butanenitrile] | 0.316 nM | > 100000 nM
N#CCCCn1c(Cn2c(=O)n(-c3ccc4ncccc4c3)c3ccncc32)cc2cc(Cl)ccc21 [Compound P43, 4-(5-chloro-2-((2-oxo-1-(quinolin-6-yl)-1H-imidazo[4,5-c]pyridin-3(2H)-yl)methyl)-1H-indol-1-yl)butanenitrile] | 0.398 nM | > 100000 nM
O=c1n(Cc2cc3cc(Cl)ccc3n2CCCCF)c2cnccc2n1-c1ccncc1 [Compound P44, 3-((5-chloro-1-(4-fluorobutyl)-1H-indol-2-yl)methyl)-1-(pyridin-4-yl)-1H-imidazo[4,5-c]pyridin-2(3H)-one] | 1 nM | > 100000 nM
COc1ccc(-n2c(=O)n(Cc3cc4cc(Cl)ccc4n3CCCC#N)c3cnccc32)c(F)c1 [Compound P45, 4-(5-chloro-2-((1-(2-fluoro-4-methoxyphenyl)-2-oxo-1H-imidazo[4,5-c]pyridin-3(2H)-yl)methyl)-1H-indol-1-yl)butanenitrile] | 1 nM | 15800 nM
Cc1ccc(-n2c(=O)n(Cc3cc4cc(Cl)ccc4n3CCCC#N)c3cnccc32)cc1 [Compound P46, 4-(5-chloro-2-((2-oxo-1-p-tolyl-1H-imidazo[4,5-c]pyridin-3(2H)-yl)methyl)-1H-indol-1-yl)butanenitrile] | 1.26 nM | > 100000 nM
COc1ccc(-n2c(=O)n(Cc3cc4cc(Cl)ccc4n3CCCC#N)c3cnccc32)c(OC)c1 [Compound P47, 4-(5-chloro-2-((1-(2,4-dimethoxyphenyl)-2-oxo-1H-imidazo[4,5-c]pyridin-3(2H)-yl)methyl)-1H-indol-1-yl)butanenitrile] | 1.58 nM | > 100000 nM
N#CCCCn1c(Cn2c(=O)n(-c3ccncc3)c3ccncc32)cc2cc(Cl)ccc21 [Compound P48, 4-(5-chloro-2-((2-oxo-1-(pyridin-4-yl)-1H-imidazo[4,5-c]pyridin-3(2H)-yl)methyl)-1H-indol-1-yl)butanenitrile] | 2.51 nM | > 100000 nM
N#CCCCn1c(Cn2c(=O)n(-c3nccs3)c3ccncc32)cc2cc(Cl)ccc21 [Compound P49, 4-(5-chloro-2-((2-oxo-1-(thiazol-2-yl)-1H-imidazo[4,5-c]pyridin-3(2H)-yl)methyl)-1H-indol-1-yl)butanenitrile] | 6.31 nM | > 25100 nM
